Experimental data reported in US6153653A, “Choline compositions and uses thereof” (Protarga, Inc., priority 1997, dated 2000).
Values joined by “and” are separate entries in the source; they are usually repeats but may differ in a detail not shown here. Identical values can stand only once. “Also recorded” adds a separate entry of the source.

How the values were obtained:
[1] = test system: MCA occlusions of rat brain; experiment: Middle cerebral artery occlusion-reperfusion stroke model, infarct by triphenyltetrazolium chloride staining; format: in vivo; conditions: for Infarct volume (% of control non-occluded side of brain), Average: vehicle average 35.5
Description: Two sets of experiments were carried out. In the first set, rats were administered with 50 mg/kg of DHA-choline i.p. at 30 minutes prior to occlusion of the middle cerebral artery of the left side of the brain using a standard highly reproducible animal model of stroke (Karpiak et al., J. Neurosci. Res. 30:512-520, 1991). Occlusion of the middle cerebral artery inhibits blood flow to a major portion of the left cortical and subcortical regions of the brain. After a two hour period, the occluded blood vessel was opened to allow reperfusion of the brain, and anesthesia was terminated. Each animal received additional doses of 50 mg/kg of DHA-choline 24 and 48 hours later.
The animals were sacrificed, perfused with formalin fixative, brains were sliced into seven 2 mm thick coronal sections, and stained with triphenyltetrazolium chloride (Watson et al., J. Neurosci. Methods 53:203-208, 1994). In this test, tissue that contains intact mitochondria stains red, whereas dead tissue with damaged mitochondria picks up no stain and remains white. Each unstained area on the left side of a section was measured and compared to the total area of the control non-occluded right side of the same section of the brain. The area of damaged (white) brain tissue cells was calculated as a percent of the intact right side of a section. […] (n=5 per group.)
In the second set of experiments (n=5), the identical occlusion-reperfusionrat model was used; only the time of administration of the drug was changed. DHA-choline was injected i.p. at a dose of 50 mg/kg at one hour after the beginning of the reperfusion, i.e., at three hours after the initiation of the stroke event. Controls (n=5) received an injection of the vehicle instead of the drug according to the same protocol.

[2] = test system: locomotor activity of mice; experiment: Locomotor activity (locomotor depression) study, Digiscan chambers; format: in vivo, male Swiss-Webster mice (Hsd:ND4)
Description: A dose-response study of DHA-choline-induced locomotor depression was conducted using 40 Digiscan locomotor activity testing chambers (40.5×40.5×30.5 cm) housed in sets of two, within sound attenuating chambers. A panel of infrared beams (16 beams) and corresponding photo detectors were located in the horizontal direction along the sides of each activity chamber. A 7.5W incandescent light above each chamber provided dim illumination. Fans provided an 80-dB ambient noise level within the chamber. Separate groups of 8 non-habituated male Swiss-Webster mice (Hsd:ND4, aged 2-3 mo.) were injected via the intraperitoneal route (i.p.) with either vehicle or DHA-choline (0.5, 2.5, 5, 10, 20 or 40 mg/kg), 20 minutes prior to locomotor activity testing. In all studies, the total distance (cm traversed in the horizontal plane) was measured for 2 hours within 10 min periods.
The period 0-30 min was selected for analysis of dose-response data because this is the time period in which DHA-choline produced maximal effects. The mean average distance per 10 min for this 30 min period were fit to a linear function of log, dose of the descending portion of the dose-effect curve (0.5 to 40 mg/kg dose range).

Stability = format: physicochemical; conditions: for Stability on exposure in the air (in words): exposed in the air
Solubility = format: physicochemical
[3] = in vivo; cited from earlier work
[4] = cited from earlier work
[5] = test system: animal models, clinical trials, models of aging; conditions: cited from earlier work
[6] = relative to tPA; cited from earlier work
[7] = 50 mg/kg i.p. at 30 min prior to occlusion

## CC/C=C\C/C=C\C/C=C\C/C=C\C/C=C\C/C=C\CCC(=O)OCC[N+](C)(C)C [DHA-choline, docosahexaenoyl choline iodide]
[1]; [7]
  decrease in number of dead cells: about 50%
  Infarct volume (% of control non-occluded side of brain), Average: 19.3 % of control non-occluded side of brain
[1]; 50 mg/kg i.p. at 30 min prior to occlusion, Group No. 1 to 4
  Infarct volume (% of control non-occluded side of brain), individual animals: 22 % of control non-occluded side of brain and 19 % of control non-occluded side of brain and 16 % of control non-occluded side of brain and 20 % of control non-occluded side of brain
[1]; 50 mg/kg i.p. at 3 hours after occlusion, Group No. 1 to 5
  Infarct volume (% of control non-occluded side of brain), individual animals: 15 % of control non-occluded side of brain and 17 % of control non-occluded side of brain and 25 % of control non-occluded side of brain and 21 % of control non-occluded side of brain and 20 % of control non-occluded side of brain
[1]; 50 mg/kg i.p. at 3 hours after occlusion
  Infarct volume (% of control non-occluded side of brain), Average: 19.6 % of control non-occluded side of brain
[1]; 50 mg/kg i.p. at three hours after initiation of stroke (one hour after beginning of reperfusion)
  decrease in infarct volume: approximately 50%
[2]; 0-30 min, overall effect
  one-way analysis of variance on total distance/10 min, F(6,49): 10.5
[2]; i.p., after 20 min pretreatment
  time period in which maximal effects were produced: 0 to 30 min
Stability
  Stability on exposure in the air (in words): exposed in the air for 5 days showed that the compound had not decomposed; also recorded: if it is exposed in the air for too long will decompose
Stability; purification on neutral alumina, 1H NMR
  Stability on neutral alumina (in words): will result in other peaks on ^1 H NMR
Solubility
  Solubility (solvents, in words): soluble in CH2 Cl2, CHCl3, EtOAc, EtOH insoluble in hexanes, Et2 O

## CC/C=C\C/C=C\C/C=C\C/C=C\C/C=C\C/C=C\CCC(=O)O [DHA, cis-docosahexaenoic acid]
[3]
  crossing the blood-brain barrier (in words): unusually effective in crossing the blood-brain barrier
[4]
  Stability in the presence of oxygen (in words): can be unstable in the presence of oxygen

## C[N+](C)(C)CCO [choline]
[3]
  crossing the blood-brain barrier (in words): cross the blood-brain barrier

## C[N+](C)(C)CCOP(=O)(O)OP(=O)([O-])OC[C@H]1O[C@@H](n2ccc(N)nc2=O)[C@H](O)[C@@H]1O [CDP-choline, Cytidine 5'-diphosphocholine]
[3]
  release on administration (in words): choline and cytidine are released into the systemic circulation
[5]
  neuroprotective effect; memory and learning deficits (in words): neuroprotective effect in animal models and in clinical trials; also recorded: improves memory and learning deficits in models of aging

## CC/C=C\C/C=C\C/C=C\C/C=C\C/C=C\C/C=C\CCC(=O)OCCN(C)C [2-dimethylaminoethyl docosahexaenoate]
Stability
  Stability on exposure in the air (in words): turns dark when exposed in the air for several days
Solubility
  Solubility (solvents, in words): soluble in EtOAc, Et2 O, CH2 Cl2, CHCl3, EtOH insoluble in H2 O

## Nc1ccn([C@@H]2O[C@H](CO)[C@@H](O)[C@H]2O)c(=O)n1 [cytidine]
[3]
  crossing the blood-brain barrier (in words): cross the blood-brain barrier

## tPA conjugated to polyethylene glycol: conjugation of tPA to polyethylene glycol (EP-A304,311)
[6]
  clearance rate (in words): reduce the clearance rate of tPA
